Measured values as given in PMC8744235 (Journal of Biomedical Science, 2022).
“And” between values parts separate entries of the source, which are not always exact repeats. Identical values can stand only once. Counter-ions that a name gives are not always drawn. Like-named read-outs stand apart in the source and are kept apart here.

Columns and labels:
[1] = tested on: colonic mucosa; design: method as in PMID 32014250; conditions: cited from earlier work
[2] = target: SMCT1; conditions: inhibition of uptake of SMCT1 substrate nicotinate, mouse colon cell lines; cited from earlier work
[3] = tested on: [^3H]VPA uptake in MT (hSOD1^G93A) NSC-34 cell line; conditions: for [^3H]VPA uptake (% of control): 10 s, 37 °C
[4] = tested on: [^3H]VPA uptake in WT (hSOD1^WT) NSC-34 cell line; assay: Inhibition of [3H]VPA uptake by substrates/inhibitors/drugs, WT cell line; format: cell-based; conditions: for [^3H]VPA uptake (% of control): 10 s, 37 °C
[5] = tested on: [^3H]VPA uptake in MT (hSOD1^G93A) NSC-34 cell line; assay: cells
[6] = tested on: FRTL-5 cells; conditions: inhibition of GHB uptake by FRTL-5 cells; cited from earlier work
[7] = tested on: NSC-34 wild-type (NSC-34/hSOD1^WT) cell line; assay: [3H]VPA cellular uptake and kinetic parameters, WT cell line; format: in vitro ADME
Source text: (§1) To maintain the sodium-free environment in the ECF buffer, NaCl and NaHCO3 was replaced with […] and N-methyl-D-glucamine (NMG), respectively. […] Similarly, to observe the effect of pH, the ECF buffer was adjusted to pH 6.0-7.4 using HCl or NaOH following a previously described experimental procedure. […] For the Eadie-Hofstee plot, the saturable components were plotted by subtracting the non-saturable uptake from the total uptake rate.

[8] = in the body; cited from earlier work
[9] = tested on: NSC-34 mutant-type (NSC34/hSOD1^G93A) cell line; assay: [3H]VPA cellular uptake and kinetic parameters, MT ALS cell line; format: in vitro ADME
Source text: as §1

[10] = tested on: NSC-34 MT cell line; assay: Cell viability (MTT) assay, glutamate- and H2O2-induced neurotoxicity, MT; conditions: 24 h
Protocol: (§2) Then, an MTT [3‐(4,5‐[…]‐2‐yl)‐2,5‐diphenyltetrazoliumbromide] solution (5 mg/mL) was added and the cells were stored in the dark at 37 °C until the appearance of a purple precipitate (formazan). Then, DMSO was added and the cells were left for 15 min; afterwards, the absorbance was measured using an Infinite F200 PRO microplate reader (Tecan Trading AG, Männedorf, Switzerland) at […]. Images were captured using an EVOS XL Core Cell Imaging System (Life technologies, Thermo Fisher Scientific Korea Co., Ltd.).

[11] = tested on: NSC-34 WT cell line; assay: Cell viability (MTT) assay, glutamate- and H2O2-induced neurotoxicity, WT; conditions: 24 h
Protocol: as §2

[12] = NSC-34, pH 7.4, read-out: IC50 for [^3H]VPA uptake
[13] = NSC-34, pH 6, read-out: IC50 for [^3H]VPA uptake
[14] = 5–30 s, pH 6.0–7.4, sodium-free (NMG) buffer
[15] = high-affinity site, unlabeled VPA 0–10 mM, 10 s, pH 7.4, 37 °C
[16] = low-affinity site, 10 s, pH 7.4
[17] = VPA 2 mM added to glutamate (2 mM) and H2O2 (300 µM)

| SMILES | [^3H]VPA uptake (% of control) ([3]; compound 1 mM, pH 6.0) | [^3H]VPA uptake (% of control) ([3]; compound 10 mM, pH 6.0) | [^3H]VPA uptake (% of control) ([4]; compound 1 mM, pH 6.0) | [^3H]VPA uptake (% of control) ([4]; compound 10 mM, pH 6.0) | other results |
| --- | --- | --- | --- | --- | --- |
| Nc1ccc(O)c(C(=O)O)c1 [5-aminosalicylic acid] |  |  |  |  | Km [1]: 2400 µM; Ki/IC50 [2]: 2.8 mM |
| CC(=O)O [Acetic acid, acetic acid] | 40.3 ± 5.0 % of control | 15.4 ± 1.4 % of control | 54.9 ± 6.7 % of control | 24.4 ± 3.0 % of control |  |
| N#CC(=Cc1ccc(O)cc1)C(=O)O [CHC, α-cyano-4-hydroxycinnamate] |  | 74.6 ± 7.1 % of control |  | 67.7 ± 9.0 % of control |  |
| O=C(O)CC(O)(CC(=O)O)C(=O)O [Citric acid, citric acid] |  | 125 ± 13 % of control |  | 113 ± 3 % of control |  |
| O=S(=O)(O)c1cc(N=C=S)ccc1C=Cc1ccc(N=C=S)cc1S(=O)(=O)O [DIDS, 4,4′-diisothiocyano-2,2′-stilbenedisulfonic acid] | 58.8 ± 4.9 % of control |  | 54.8 ± 4.3 % of control |  | depletion in VPA transport ([3]; 1 mM): approximately 40%; depletion in VPA transport ([4]; 1 mM): approximately 40% |
| CC1=NN(c2ccccc2)C(=O)C1 [Edaravone, edaravone] | 81.0 ± 5.4 % of control | 68.6 ± 6.3 % of control | 80.3 ± 6.0 % of control | 67.3 ± 7.6 % of control | IC50 [5, 12]: 28.9 mM |
| C[C@]12CC[C@@H]3c4ccc(OS(=O)(=O)O)cc4CC[C@H]3[C@@H]1CCC2=O [Estrone − 3 sulfate, estrone 3-sulfate] |  | 58.2 ± 8.5 % of control |  | 60.6 ± 8.4 % of control |  |
| NS(=O)(=O)c1cc(C(=O)O)c(NCc2ccco2)cc1Cl [Furosemide, furosemide] | 61.7 ± 2.2 % of control |  | 61.7 ± 6.3 % of control |  | [^3H]VPA uptake (% of control) ([3]; compound 5 mM, acidic pH): 82.3 ± 7.5 % of control; [^3H]VPA uptake (% of control) ([4]; compound 5 mM, acidic pH): 77.5 ± 4.9 % of control |
| CC(C)Cc1ccc(C(C)C(=O)O)cc1 (centres unmarked) [Ibuprofen] | 61.9 ± 7.5 % of control | 33.5 ± 1.0 % of control | 64.3 ± 3.6 % of control | 22.3 ± 1.5 % of control | IC50 [5, 13]: 6.65 mM; IC50 [5, 12]: 36 mM; IC50 [6]: in the micromolar range |
| C[C@H](O)C(=O)O [L-lactate] |  |  |  |  | IC50 [6]: in the micromolar range |
| Nc1ccc(C(=O)NCC(=O)O)cc1 [PAH, para-aminohippuric acid] | 58.7 ± 2.9 % of control | 63.5 ± 5.5 % of control | 71.0 ± 5.5 % of control | 75.8 ± 2.3 % of control |  |
| O=C(O)CCCc1ccccc1 [PBA, 4-phenylbutyric acid] |  | 56.6 ± 3.0 % of control |  | 43.1 ± 2.2 % of control |  |
| O=C(O)c1ccccc1O [Salicylic acid] | 78.8 ± 8.6 % of control | 31.9 ± 1.6 % of control | 64.9 ± 2.0 % of control | 17.9 ± 1.5 % of control | IC50 [5, 13]: 7.36 mM |
| CCCC(CCC)C(=O)O [VPA, Valproic acid] | 78.4 ± 1.6 % of control | 37.4 ± 4.2 % of control | 78.3 ± 4.5 % of control | 35.9 ± 5.2 % of control | dependence of [^3H]VPA uptake [7, 14]: time, pH, and sodium dependent; Vmax1 ([7]; high-affinity site, pH 7.4): 0.0083 ± 0.0044 nmol/mg protein/10 s; Km1 [7, 15]: 37.8 ± 3.0 µM; Km2 [7, 16]: 4.59 ± 0.62 mM and 4.588 ± 0.620 mM; Vmax2 ([7]; low-affinity site, pH 7.4): 1.86 ± 0.24 nmol/mg protein/10 s and 1.864 ± 0.244 nmol/mg protein/10 s; half-life [8]: 9 to 16 h; dependence of [^3H]VPA uptake [9, 14]: time, pH, and sodium dependent; Vmax1 ([9]; high-affinity site, pH 7.4): 0.0232 ± 0.0007 nmol/mg protein/10 s; Km1 [9, 15]: 19.1 ± 0.7 µM; Km2 [9, 16]: 1.14 ± 0.14 mM and 1.144 ± 0.143 mM; Vmax2 ([9]; low-affinity site, pH 7.4): 0.231 ± 0.015 nmol/mg protein/10 s; neuroprotective effect on cell viability (MTT) [10, 17]: restored the viability; neuroprotective effect on cell viability (MTT) [11, 17]: restored the viability |
| N[C@@H](CCC(=O)O)C(=O)O [glutamate] |  |  |  |  | effect of neurotoxic stimulus on cell viability (MTT) ([10]; glutamate 2 mM or H2O2 300 µM): significantly decreased the viability; effect of neurotoxic stimulus on cell viability (MTT) ([11]; glutamate 2 mM or H2O2 300 µM): significantly decreased the viability |
| CC(C(=O)O)c1cccc(C(=O)c2ccccc2)c1 (centres unmarked) [ketoprofen] |  |  |  |  | IC50 [6]: in the micromolar range |
| CCCN(CCC)S(=O)(=O)c1ccc(C(=O)O)cc1 [probenecid] |  |  |  |  | IC50 [6]: in the micromolar range |
